Laboratory results reported in patent US6596497B1, “Screening of antiviral compounds targeted to the HIV-1 gp41 core structure” (New York Blood Center, Inc., priority 1999, dated 2003).
In brackets after ≈: the same amount, converted by molar mass.

What was measured:
[1] = test system: H9/HIV-1IIIB cells and MT-2 cells; assay: cells; assay type: cell-based; settings: for IC50 ± SD Cell fusion: 37° C., 2 hours; for Inhibitory activity on HIV-1-mediated cell fusion (in words): no concentration stated
Procedure: A dye transfer assay was used for detection of HIV-1-mediated cell fusion as described in Jiang et al., Nature, 365, 113 (1993). H9/HIV-1IIIB cells were labeled with a fluorescent reagent, 2′,7′-bis-(2-carboxyethyl)-5-and-6-carboxyfluorescein acetoxyethyl ester (BCECF-AM), (Molecular Probes, Inc., Eugene, Oreg.) and incubated with MT-2 cells (ratio=1:10) in a 96-well plate at 37° C. for 2 hours in the presence or absence of peptides or compounds tested. The fused and unfused BCECF-labeled HIV-1 infected cells were counted under an inverted fluorescence microscope (Zeiss, Germany) with an eyepiece micrometer discs. The percentage of inhibition of cell fusion was calculated as described in Jiang et al., 1993, Nature, 365, 113.
A dye transfer assay was used for detection of HIV-1 mediated cell fusion as described in Jiang, S., K. Lin, N. Strick, and A. R. Neurath, 1993, Inhibition of HIV-1 infection by a fusion domain binding peptide from HIV-1 envelope glycoprotein gp41, Biochem. Biophys. Res. Commun., 195, 533-538.
H9/HIV-1IIIB cells were labeled with a fluorescent reagent, 2′,7′-bis-(2-carboxyethyl)-5-and-6-carboxyfluorescein acetoxyethyl ester (BCECF-AM) (Molecular Probes, Inc., Eugene, Oreg.) and then incubated with MT-2 cells (ratio=1:10) in 96-well plates at 37° C. for 2 hours in the presence or absence of the compounds tested. The fused and unfused BCECF-labeled HIV-1 infected cells were counted under an inverted fluorescence microscope (Zeiss, Germany) with an eyepiece micrometer disc. The percentage of inhibition of cell fusion and the IC50 values were calculated as described in Jiang et al., (1993), Biochem. Biophys. Res. Commun., 195, 533-538.

[2] = target: T1, preformed N36/C34 complex (Human immunodeficiency virus type 1 group M subtype B, UniProt P04578); assay: Control ELISA: NC-1 binding to preformed complex in the presence of compound; set-up: species or system HIV-1; settings: different concentrations of compound
T1 construct: Peptides derived from the NHR and CHR regions of gp41, designated N- and C-peptides; made in house; host or cells: chemical synthesis (solid-phase FMOC)
T1 sequence (P04578 546-581, one chain of several): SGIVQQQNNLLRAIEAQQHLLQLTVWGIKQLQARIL
Text: The position might be taken that ADJ-J1, selected by a sandwich ELISA, may not block the complex formation by N- and C-peptides, but instead block NC-1 binding to the complex, either due to its association with MAb NC-1 or with the N36/C34 complex. The first possibility was excluded, since the antibody-coated wells of the plastic plates were extensively washed after addition of the mixture of N36, ADS-J1 and C34 and before. addition of MAb NC-1, excluding the presence of unbound ADS-J1, which could bind to MAb NC-1. To determine whether or not ADS-J1 binds to the surface of the N36/C34 complex and blocks NC-1 binding, a control experiment was conducted in which the complex In was preformed by mixing N36 and C34 at equimolar concentrations and captured to the wells of plastic plates coated with rabbit antibody directed against N36/C34 complex. Then, the binding of MAb NC-1 to the preformed complex in the presence of ADS-J1 at different concentrations was determined.

HIV-1IIIB = assay: HIV-1-mediated cytopathic effect (CPE), XTT; assay type: cell-based; settings: for Selective Index (S.I.) = CC50/IC50 for CPE / IC50 ± SD CPE: MT-2 cells; for IC50 ± SD CPE: sixth day post infection
Procedure: The inhibitory activity of the compounds was determined by a calorimetric method based on protection of cells against HIV-1-mediated CPE, as described in Jiang et al., (1991), J. Exp. Med., 174, 1557-1563. 1×10^4 MT-2 cells in 96-well plates were infected with diluted HIV-1IIIB in 200 μl RPMI 1640 medium containing 10% FBS in the presence of compounds at graded concentrations. After 1 hour, 24 hours and 4 days, half of the culture media were changed. On the sixth day post infection, an indicator, XTT tetrazolium dye (1 mg/ml; 50 μl/well; PolySciences, Inc., Warrington, Pa.), was added to the cells. After 4 hours, the soluble intracellular formazan was determined calorimetrically at 450 nm. The percent of inhibition of CPE and the IC50 values were calculated as described above.

MT-2 cells = assay: In vitro cytotoxicity, XTT; assay type: cell-based
Procedure: The in vitro cytotoxicity for MT-2 cells of the compounds was determined in 96-well plates using the XTT dye to measure cell viability in the absence of virus. Ten μl of 5% TRITON X-100 were added to the wells corresponding to positive controls (“P”) and 10 μl medium was added to wells corresponding to negative controls (“N”). The percent cytotoxicity was calculated using the following formula: % cytotoxicity=[(E−N)/(P−N)]×100%, wherein “E” represents experimental data in the presence of compounds. The concentration corresponding to 50% cytotoxicity (CC50) for MT-2 cells was calculated using the Calcusyn computer program. The selectivity index (S.I.=CC50/IC50) for each compound was calculated.

[3] = target: T2, N-36/C-34 complex (HIV-1 gp41 core) (Human immunodeficiency virus type 1 group M subtype B, UniProt P04578); assay: biochemical; assay type: binding; settings: for IC50 ± SD NC-1 binding: N-36 2 μM preincubated with compound, then C-34 2 μM; for Inhibitory activity on complex formation by N-36 and C-34 (in words): no concentration stated
T2 construct: Peptides derived from the NHR and CHR regions of gp41, designated N- and C-peptides; made in house; host or cells: chemical synthesis (solid-phase FMOC)
T2 sequence (P04578 546-581, one chain of several): as above
Procedure: For detection of peptide complexes, a direct and a sandwich ELISA were used. In the direct ELISA, the N- and C-peptides were mixed at equimolar concentration in PBS and diluted in coating buffer. Then, the peptide complexes were directly coated onto the wells of microplate. In the sandwich ELISA, the plate was coated with IgG (10 μg/ml) purified from rabbit antisera directed against N36(L6)C34, followed by the addition of the peptide complexes formed by mixing N- and C-peptides in PBS in equimolar concentrations. To screen for antiviral agents, compounds were pre-incubated with N-peptides at 37° C. for 30 minutes before mixing with the C-peptides. The binding of the peptide complexes to the antibodies was then detected as described above.
The percentage of inhibition by the compounds of the binding of NC-1 to the peptide complexes was calculated as described in Jiang, S., K. Lin, and A. R. Neurath, 1991, “Enhancement of human immunodeficiency virus type-1 (HIV-1) infection by antisera to peptides from the envelope glycoproteins gp120/gp41”, J. Exp. Med., 174, 1557-1563.
A sandwich ELISA was established to screen for compounds that interfere with the formation of the N-36/C-34 complex. N-36 (2 μM) was preincubated with compounds at graded concentrations at 37° C. for 30 minutes, followed by the addition of C-34 (2 μM). After incubation at 37° C. for 30 minutes, the mixture was added to wells of a 96-well polystyrene plate (Immulon I, Dynatech Laboratories, Inc., Chantilly, Va.) which were precoated with IgG (10 μg/ml) purified from rabbit antisera directed against N36(L6)C34. […] Absorbance at 450 nm (A450) was read using an ELISA reader (Dynatech Laboratories, Inc., Chantilly, Va.). The percentage of inhibition by the compounds of the binding of NC-1 to the peptide complexes was calculated as described in Jiang S., K. Lin, and A. R. Neurath, 1991, “Enhancement of human immunodeficiency virus type-1 (HIV-1) infection by antisera to peptides from the envelope glycoproteins gp120/gp41”, J. Exp. Med., 174, 1557-1563. The concentration for 50% inhibition (IC50) was calculated using a computer program, designated Calcusyn (Chou, T.-C., 1991, “The median-effect principle and the combination index for quantitation of synergism and antagonism. In Synergism and Antagonism in Chemotherapy”, T.-C. Chou and D. C. Rideout, editors, Academic Press, San Diego, 61-102).

Molecule | IC50 ± SD Cell fusion [1] | Inhibition of HIV-1-mediated cell fusion (in words) ([1]; compounds at 10 μg/ml, FIG. 13) | Inhibitory activity on HIV-1-mediated cell fusion (in words) [1] | Inhibitory activity on HIV-1-mediated cell fusion (in words) ([1]; listed as ADJ-1) | Blocking of NC-1 binding to the preformed N36/C34 complex [2] | Selective Index (S.I.) = CC50/IC50 for CPE (HIV-1IIIB) | IC50 ± SD CPE (HIV-1IIIB) | Inhibitory activity on HIV-1-mediated CPE (in words) (HIV-1IIIB; no concentration stated) | CC50 ± SD (MT-2 cells) | IC50 ± SD NC-1 binding [3] | Inhibition of NC-1 detectable complex formation by N-36 and C-34 (in words) ([3]; compounds at 10 μg/ml, FIG. 13) | Inhibitory activity on complex formation by N-36 and C-34 (in words) [3] | Inhibitory activity on complex formation by N-36 and C-34 (in words) ([3]; listed as ADJ-1)
7-[6-phenylamino-4-[4-[(3,5-disulfo-8-hydroxynaphthyl)azo]-2-methoxy-5-methylphenylamino]-1,3,5-triazine-2-yl]-4-hydroxy-3-[(2-methoxy-5-sulfophenyl)azo]-2-naphthalene sulfonic acid [ADS-J1] | 4.95 ± 1.31 µg/mL | completely inhibited | promising inhibitory activity | most potent inhibitory activity | unable to block | 35.24 | 8.29 ± 1.13 µg/mL | promising inhibitory activity | 292.16 ± 2.27 µg/mL | 0.73 ± 0.08 µg/mL | completely inhibited | promising inhibitory activity | most potent inhibitory activity
Cc1ccc(C(=O)Nc2cccc(C(=O)N/N=C/c3ccc(Br)cc3)c2)cc1 [ADS-J3] | >100 µg/mL |  |  |  |  | ≦1.00 | >100 µg/mL |  | 24.91 ± 2.62 µg/mL (≈ 57.1 µM) | >100 µg/mL |  |  | 
COc1ccc2c(c1)CCC/C2=N\OC(=O)Nc1ccccc1-c1ccccc1 [ADS-J8] | >100 µg/mL |  |  |  |  | ≦1.00 | >100 µg/mL |  | 46.83 ± 4.93 µg/mL (≈ 121 µM) | >100 µg/mL |  |  | 
